Article PMC4012456 (Marine Drugs, 2014)
Where a name gives a salt, the structure may show the parent alone. Read-outs that look alike come from different tables or passages of the source.

How the values were obtained:
[1] = target: T1, murine muscle-type nAChR (Mus musculus, UniProt P02716+P04756+P09690+P20782); test: electrophysiology on muscle nAChR expressed in Xenopus laevis oocytes; format: cell-based; conditions: for inhibition of agonist-evoked current on muscle nAChR (in words): 10 μM acetylcholine; for reversibility of inhibition of muscle nAChR: wash out
T1 construct: expressed in transfected cells; host or cells: Xenopus laevis oocytes injected with plasmid DNA (CMV promoter)

[2] = target: L. stagnalis AChBP (Lymnaea stagnalis, UniProt P58154); set-up: method as in PMID 18338186; conditions: read-out: Kd, affinity to L. stagnalis AChBP; quenching of intrinsic tryptophan fluorescence; cited from earlier work
[3] = 10 μM compound, Xenopus oocytes

T1 sequence (P04756 21-457): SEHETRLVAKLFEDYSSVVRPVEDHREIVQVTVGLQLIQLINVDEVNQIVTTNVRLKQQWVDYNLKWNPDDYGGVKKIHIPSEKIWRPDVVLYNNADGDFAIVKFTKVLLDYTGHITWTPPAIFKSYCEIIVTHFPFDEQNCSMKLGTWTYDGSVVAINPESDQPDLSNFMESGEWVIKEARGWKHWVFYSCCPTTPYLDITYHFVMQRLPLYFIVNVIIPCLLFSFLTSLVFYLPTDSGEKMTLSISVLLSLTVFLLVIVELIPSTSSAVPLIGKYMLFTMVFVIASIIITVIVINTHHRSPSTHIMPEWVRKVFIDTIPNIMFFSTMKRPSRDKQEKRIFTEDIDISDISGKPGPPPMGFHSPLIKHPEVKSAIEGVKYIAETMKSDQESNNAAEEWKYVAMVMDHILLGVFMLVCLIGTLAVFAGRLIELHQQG
T1 sequence (P09690 24-501): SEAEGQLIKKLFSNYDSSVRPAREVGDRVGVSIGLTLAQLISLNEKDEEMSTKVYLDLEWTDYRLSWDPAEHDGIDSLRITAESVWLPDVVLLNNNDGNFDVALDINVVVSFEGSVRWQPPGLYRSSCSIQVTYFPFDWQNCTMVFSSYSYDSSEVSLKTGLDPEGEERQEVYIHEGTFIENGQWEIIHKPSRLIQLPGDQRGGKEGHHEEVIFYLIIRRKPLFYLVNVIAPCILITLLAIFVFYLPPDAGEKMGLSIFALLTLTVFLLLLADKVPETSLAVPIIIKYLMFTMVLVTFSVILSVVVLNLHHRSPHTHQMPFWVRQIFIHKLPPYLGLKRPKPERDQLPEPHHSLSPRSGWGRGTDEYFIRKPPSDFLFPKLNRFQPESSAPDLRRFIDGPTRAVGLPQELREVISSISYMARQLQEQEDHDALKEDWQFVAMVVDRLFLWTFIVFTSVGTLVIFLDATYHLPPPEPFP
T1 sequence (P02716 25-520): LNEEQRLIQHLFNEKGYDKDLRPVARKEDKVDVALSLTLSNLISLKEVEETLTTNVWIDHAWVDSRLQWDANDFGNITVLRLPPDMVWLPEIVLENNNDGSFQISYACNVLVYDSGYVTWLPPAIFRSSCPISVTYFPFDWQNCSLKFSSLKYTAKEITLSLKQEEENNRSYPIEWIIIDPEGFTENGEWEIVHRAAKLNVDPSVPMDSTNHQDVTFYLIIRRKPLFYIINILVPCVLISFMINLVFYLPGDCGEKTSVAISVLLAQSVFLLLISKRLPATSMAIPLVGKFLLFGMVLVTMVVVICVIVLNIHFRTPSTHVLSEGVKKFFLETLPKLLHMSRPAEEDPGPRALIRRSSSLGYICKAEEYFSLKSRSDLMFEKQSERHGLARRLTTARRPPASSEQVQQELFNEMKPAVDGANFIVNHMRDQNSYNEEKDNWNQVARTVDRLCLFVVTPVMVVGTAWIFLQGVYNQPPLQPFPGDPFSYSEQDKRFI
T1 sequence (P20782 21-493): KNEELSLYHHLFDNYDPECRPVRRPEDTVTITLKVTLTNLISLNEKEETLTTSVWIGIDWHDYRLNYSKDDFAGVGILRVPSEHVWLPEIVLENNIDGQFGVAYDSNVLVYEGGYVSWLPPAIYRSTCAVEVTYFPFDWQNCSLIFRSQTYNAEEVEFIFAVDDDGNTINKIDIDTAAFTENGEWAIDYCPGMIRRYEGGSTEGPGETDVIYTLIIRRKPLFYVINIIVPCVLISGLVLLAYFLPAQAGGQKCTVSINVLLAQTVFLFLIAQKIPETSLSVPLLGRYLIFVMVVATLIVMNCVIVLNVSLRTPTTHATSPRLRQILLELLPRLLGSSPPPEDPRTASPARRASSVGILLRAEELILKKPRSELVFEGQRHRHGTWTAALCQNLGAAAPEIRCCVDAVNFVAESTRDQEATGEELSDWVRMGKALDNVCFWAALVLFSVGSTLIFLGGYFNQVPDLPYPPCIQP
Sequence of L. stagnalis AChBP (P58154 20-229 limits assumed): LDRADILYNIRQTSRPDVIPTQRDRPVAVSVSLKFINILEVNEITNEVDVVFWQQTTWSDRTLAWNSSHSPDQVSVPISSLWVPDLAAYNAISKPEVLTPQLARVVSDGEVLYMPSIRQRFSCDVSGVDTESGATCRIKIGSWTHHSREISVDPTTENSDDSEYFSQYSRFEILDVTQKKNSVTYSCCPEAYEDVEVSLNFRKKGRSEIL

Row | Compound | inhibition of agonist-evoked current on muscle nAChR (in words) [1, 3] | reversibility of inhibition of muscle nAChR ([1]; 10 μM compound) | IC50 [1] | other results
1 | C[C@@H](N)[C@H](O)CCCCCCCC(=O)CCCCCCCCCCCCCC[C@@H](O[C@@H]1O[C@H](CO)[C@H](O)[C@H](O)[C@H]1O)[C@@H](C)N [Compound 1, Rhizochalin] | almost completely | very slowly reversible |  | 
2 | C[C@@H](N)[C@H](O)CCCCCCCCCCCCCCC(=O)CCCCCCC[C@@H](O)[C@@H](C)N [Compound 2, aglycone of rhizochalin] | almost completely | very slowly reversible | 2 ± 0.3 µM | 
3 | C[C@@H]1C[C@@H]2c3cccc4[nH]c(Br)c(c34)C[C@H]2N(C)C1 [Compound 3, pibocin] | moderate activity |  | 3.7 ± 0.2 µM | 
4 | COc1cc(CCN)c2c(c1OC)SSSSS2 [Compound 4, Varacin] | moderate activity |  | 8.7 ± 0.4 µM | 
5 | C[N+]1=C2C=C(N)C(=O)c3[nH]cc(c32)CC1 [Compound 5, makaluvamine C] | weaker but still reproducible effect |  |  | 
6 | Cn1cc2c3c1C(=O)C(N/C=C/c1ccc(O)cc1)=CC3=[N+](C)CC2 [Compound 6, makaluvamine G] | almost completely | fast off-set rate | 3.3 ± 0.3 µM | receptor recovery time from the end of compound application ([1]; 10 μM compound, muscle nAChR): 5 min
7 | NC1=N/C(=C2/CCNC(=O)c3[nH]ccc32)C(=O)N1 [Compound 7, Debromohymenialdesine] | extremely weak, if any, activity |  |  | 
8 | C[n+]1ccccc1-c1cccc[n+]1C [Compound 8, 1,1′-Dimethyl-[2,2′]-bipyridyldiium salt] | extremely weak, if any, activity |  |  | 
9 | O=C1NCCc2cncn21 [Compound 10, 7,8-Dihydroimidazo-[1,5-c]-pyrimidin-5(6H)-one] | extremely weak, if any, activity |  |  | 
10 | Cn1c(=N)c2[nH]cnc2n(C)c1=O [Compound 11, 1,3-Dimethylisoguaniniium hydrochloride] | extremely weak, if any, activity |  |  | 
11 | COc1cc2ccnc3c2c(c1OC)NC=C3 [Compound 12, Aaptamine] | moderate activity |  |  | 
12 | CC/C=C/[C@@H]1CC[C@]2(C[C@H]3CC[C@H]4[C@@H](C(=O)OC(CC)CCCCCCCCCCCCC[C@@H]5O[C@](O)(CCN)[C@H](O)N(CCCN)C5=O)[C@@]5(CCC[C@H](C)O5)NC(=N2)N34)O1 (some centres unmarked) [Compound 13, monanchocidin] | almost completely | very slowly reversible |  | IC50 ([1]; read-out: IC50, current inhibition on muscle nAChR, acetylcholine-evoked current (10 μM acetylcholine), Xenopus oocytes): 4.1 ± 0.6 µM
13 | CN/C(=N\[N+](=O)[O-])NCc1cnc(Cl)s1 [clothianidin] |  |  |  | Kd [2]: 7.3 µM
